Bounds are passed on as bounds.

In the assay the target is T1, GLP-1R (Homo sapiens, UniProt P43220).
T1 construct: host or cells: CRE-bla CHO-K1
T1 sequence (P43220 24-463): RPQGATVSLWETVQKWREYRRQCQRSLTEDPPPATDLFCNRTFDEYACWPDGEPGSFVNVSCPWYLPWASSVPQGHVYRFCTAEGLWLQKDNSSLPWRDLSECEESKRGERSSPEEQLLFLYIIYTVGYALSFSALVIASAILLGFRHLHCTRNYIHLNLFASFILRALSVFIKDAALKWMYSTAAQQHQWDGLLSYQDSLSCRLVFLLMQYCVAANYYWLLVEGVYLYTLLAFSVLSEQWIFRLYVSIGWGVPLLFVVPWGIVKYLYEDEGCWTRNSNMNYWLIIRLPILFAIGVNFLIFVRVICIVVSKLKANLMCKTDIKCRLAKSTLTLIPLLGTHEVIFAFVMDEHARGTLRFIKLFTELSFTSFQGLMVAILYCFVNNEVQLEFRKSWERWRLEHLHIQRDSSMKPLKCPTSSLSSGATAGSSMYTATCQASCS
T1 sequence (P01275 100-127 partner limits assumed): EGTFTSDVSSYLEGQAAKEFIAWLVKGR
In words: EC20 GLP-1(9-36) PAM cAMP Assay: dose response of compound in the presence of fixed concentration of GLP-1(9-36). Type of assay: cell-based. Particulars: GLP-1R CRE-bla CHO-K1 cells, in presence of fixed concentration of GLP-1(9-36), 30 min at 37° C. The essentials:
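GLP-1R CRE-bla CHO-K1 cells in HBSS/10 mM Hepes/0.1% BSA, pH 7.4, with IBMX were given a 12-point compound dose-response plus a fixed EC20 level of GLP-1(9-36) for 30 min at 37° C. cAMP was measured by luminescence, converted via a standard curve, and EC50 and Emax were fitted by non-linear regression.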
In general, EC50 refers to the concentration giving half of the maximal effect. With `C[C@@H](NC(=O)[C@H](Cc1ccc(-c2ncc(C3=CCCC3)cn2)cc1)NC(=O)c1ccc(C(C)(C)C)s1)C(=O)O` [Compound 63], the concentration giving a half-maximal response (EC50) fell in the range of 0.5 to 2.5 µM.
Then `C[C@@H](NC(=O)[C@H](Cc1ccc(-c2ncc(C3=CCC(NC(=O)OC(C)(C)C)CC3)cn2)cc1)NC(=O)c1ccc(C(C)(C)C)s1)C(=O)O` (stereo partly shown) [Compound 64], with 2.5 to 5 µM; and `C[C@@H](NC(=O)[C@H](Cc1ccc(-c2ncc(C3=CCC(C(F)(F)F)CC3)cn2)cc1)NC(=O)c1ccc(C(C)(C)C)s1)C(=O)O` (stereo partly shown) [Compound 65], with 0.5 to 2.5 µM; and `C[C@@H](NC(=O)[C@H](Cc1ccc(-c2ncc(C3=CCC4(CC3)OCCO4)cn2)cc1)NC(=O)c1ccc(C(C)(C)C)s1)C(=O)O` [Compound 66], with 2.5 to 5 µM.
Then `CCCC1CCC(C2CCC(c3cnc(-c4ccc(C[C@H](NC(=O)c5ccc(C(C)(C)C)s5)C(=O)N[C@H](C)C(=O)O)cc4)nc3)CC2)CC1` (stereo partly shown) [Compound 67], with below 0.5 µM; and `C[C@@H](NC(=O)[C@H](Cc1ccc(-c2ncc(C3=CCCC(NC(=O)OC(C)(C)C)C3)cn2)cc1)NC(=O)c1ccc(C(C)(C)C)s1)C(=O)O` (stereo partly shown) [Compound 69], with 2.5 to 5 µM.
Then `CCC1CCC(C2CC=C(c3cnc(-c4ccc(C[C@H](NC(=O)c5ccc(C(C)(C)C)s5)C(=O)N[C@H](C)C(=O)O)cc4)nc3)CC2)CC1` (stereo partly shown) [Compound 70], with below 0.5 µM.
As for `CCCC1CCC(C2CC=C(c3cnc(-c4ccc(C[C@H](NC(=O)c5ccc(C(C)(C)C)s5)C(=O)NCCC(=O)O)cc4)nc3)CC2)CC1` (stereo partly shown) [Compound 71], the half-maximal effective concentration (EC50) was below 0.5 µM.
Then `CCCC1CCC(C2CC=C(c3cnc(-c4ccc(C[C@H](NC(=O)c5ccc(C(C)(C)C)s5)C(=O)N[C@@H](CCN)C(=O)O)cc4)nc3)CC2)CC1` (stereo partly shown) [Compound 72], with 2.5 to 5 µM.
Then `CCCC1CCC(C2CC=C(c3cnc(-c4ccc(C[C@H](NC(=O)c5ccc(C(C)(C)C)s5)C(=O)N[C@@H](CO)C(=O)O)cc4)nc3)CC2)CC1` (stereo partly shown) [Compound 73], with below 0.5 µM; and `CCCC1CCC(C2CC=C(c3cnc(-c4ccc(C[C@H](NC(=O)c5ccc(C(C)(C)C)s5)C(=O)N[C@H](C(=O)O)[C@@H](C)O)cc4)nc3)CC2)CC1` (stereo partly shown) [Compound 74], with below 0.5 µM.
Then `CCCC1CCC(C2CC=C(c3cnc(-c4ccc(C[C@H](NC(=O)c5ccc(C(C)(C)C)s5)C(=O)N[C@H](C(=O)O)C(C)C)cc4)nc3)CC2)CC1` (stereo partly shown) [Compound 75], with 0.5 to 2.5 µM; and `CC(C)(C)c1ccc(C(=O)N[C@@H](Cc2ccc(-c3ncc(C4=CCC(C5CCCCC5)CC4)cn3)cc2)C(=O)N2CC(C(=O)O)C2)s1` (stereo partly shown) [Compound 77], with below 0.5 µM; and `CCCC1CCC(C2CC=C(c3cnc(-c4ccc(C[C@H](NC(=O)c5ccc(C(C)(C)C)s5)C(=O)N[C@H](Cc5cnc[nH]5)C(=O)O)cc4)nc3)CC2)CC1` (stereo partly shown) [Compound 78], with 0.5 to 2.5 µM.
On to `CCCC1CCC(C2CC=C(c3cnc(-c4ccc(C[C@H](NC(=O)c5ccc(C(C)(C)C)s5)C(=O)S(C)(=O)=O)cc4)nc3)CC2)CC1` (stereo partly shown) [Compound 79], for which the EC50 was below 0.5 µM.
Then `CCCC1CCC(C2CC=C(c3cnc(-c4ccc(C[C@H](NC(=O)c5ccc(C(C)(C)C)s5)C(=O)N5C6CCC5C(C(=O)O)C6)cc4)nc3)CC2)CC1` (stereo partly shown) [Compound 80], with 0.5 to 2.5 µM; and `CCCC1CCC(C2CC=C(c3cnc(-c4ccc(C[C@@H](NC(=O)c5ccc(C(C)(C)C)s5)C(=O)N5CC(C(=O)O)C5)cc4)nc3)CC2)CC1` (stereo partly drawn) [Compound 81, 1-((2R)-2-(5-(tert-butyl)thiophene-2-carboxamido)-3-(4-(5-(4′-propyl-[1,1′-bi(cyclohexan)]-3-en-4-yl)pyrimidin-2-yl)phenyl)propanoyl) azetidine-3-carboxylic acid], with 0.5 to 2.5 µM.
Then `CCO[C@H]1CC[C@@H](C2CC=C(c3cnc(-c4ccc(C[C@H](NC(=O)c5ccc(C(C)(C)C)s5)C(=O)N5CC(C(=O)O)C5)cc4)nc3)CC2)CC1` (stereo partly shown) [Compound 83], with below 0.5 µM.
Then `CCO[C@H]1CC[C@H](C2CC=C(c3cnc(-c4ccc(C[C@H](NC(=O)c5ccc(C(C)(C)C)s5)C(=O)N5CC(C(=O)O)C5)cc4)nc3)CC2)CC1` (stereo partly shown) [Compound 84], with below 0.5 µM; and `CCCC1CCC(C2CC=C(c3cnc(-c4ccc(CC(NC(=O)c5ccc(C(C)(C)C)s5)C(=O)N5CC(C(=O)O)C5)cc4)nc3)CC2)CC1C` (stereo not shown) [Compound 85], with below 0.5 µM; and `CC(C)CC1CCC(C2CC=C(c3cnc(-c4ccc(C[C@H](NC(=O)c5ccc(C(C)(C)C)s5)C(=O)N5CC(C(=O)O)C5)cc4)nc3)CC2)CC1` (stereo partly shown) [Compound 86], with below 0.5 µM.
Turning to `CCC[C@H]1CC[C@H](C2CC=C(c3cnc(-c4ccc(C[C@H](NC(=O)c5ccc(C(C)(C)C)s5)C(=O)N5CC(C(=O)O)C5)cc4)nc3)C(C)C2)CC1` (stereo partly shown) [Compound 87], the EC50 is below 0.5 µM.
Then `COCC1CCC(C2CC=C(c3cnc(-c4ccc(CC(NC(=O)c5ccc(C(C)(C)C)s5)C(=O)N5CC(C(=O)O)C5)cc4)nc3)CC2)CC1` (stereo not shown) [Compound 88], with below 0.5 µM; and `CCC[C@H]1CC[C@H](C2CCC(c3cnc(-c4ccc(C[C@H](NC(=O)c5ccc(C(C)(C)C)s5)C(=O)N5CC(C(=O)O)C5)cc4)nc3)=C(C)C2)CC1` (stereo partly shown) [Compound 89], with below 0.5 µM; and `CC1(C)CCC(C2CC=C(c3cnc(-c4ccc(C[C@H](NC(=O)c5ccc(C(C)(C)C)s5)C(=O)N5CC(C(=O)O)C5)cc4)nc3)CC2)CC1` (stereo partly shown) [Compound 90], with below 0.5 µM.
As for `CCc1ccc(C(=O)N[C@@H](Cc2ccc(-c3ncc(C4=CCC([C@H]5CC[C@H](C)CC5)CC4)cn3)cc2)C(=O)N2CC(C(=O)O)C2)s1` (stereo partly shown) [Compound 91], the EC50 is below 0.5 µM.
For the compound `CCc1ccc(C(=O)N[C@@H](Cc2ccc(-c3ncc(C4=CCC(C5CCC(C)(C)CC5)CC4)cn3)cc2)C(=O)N2CC(C(=O)O)C2)s1` (stereo partly shown) [Compound 92], the concentration giving a half-maximal response (EC50) is below 0.5 µM.
As to `CCc1ccc(C(=O)N[C@@H](Cc2ccc(-c3ncc(C4=CCC([C@H]5CC[C@H](CC)CC5)CC4)cn3)cc2)C(=O)N2CC(C(=O)O)C2)s1` (stereo partly shown) [Compound 93], the EC50 is below 0.5 µM.
On to `CC[C@H]1CC[C@H](C2CC=C(c3cnc(-c4ccc(C[C@H](NC(=O)c5ccc(C(C)(C)C)cc5)C(=O)N5CC(C(=O)O)C5)cc4)nc3)CC2)CC1` (stereo partly shown) [Compound 94], for which the EC50 is below 0.5 µM.
`CC[C@H]1CC[C@H](C2CC=C(c3cnc(-c4ccc(C[C@H](NC(=O)c5ccc(OC(C)(C)C)cc5)C(=O)N5CC(C(=O)O)C5)cc4)nc3)CC2)CC1` (stereo partly shown) [Compound 95]: the half-maximal effective concentration (EC50) was in the range of 0.5 to 2.5 µM.
Then `CC[C@H]1CC[C@H](C2CC=C(c3cnc(-c4ccc(C[C@H](NC(=O)c5ccc(CC(C)C)s5)C(=O)N5CC(C(=O)O)C5)cc4)nc3)CC2)CC1` (stereo partly shown) [Compound 96], with below 0.5 µM; and `CC[C@H]1CC[C@H](C2CC=C(c3cnc(-c4ccc(C[C@H](NC(=O)c5ccc(C6CC6)s5)C(=O)N5CC(C(=O)O)C5)cc4)nc3)CC2)CC1` (stereo partly shown) [Compound 97], with below 0.5 µM; and `CC[C@H]1CC[C@H](C2CC=C(c3cnc(-c4ccc(C[C@H](NC(=O)c5ccc(C(F)(F)F)s5)C(=O)N5CC(C(=O)O)C5)cc4)nc3)CC2)CC1` (stereo partly shown) [Compound 98], with below 0.5 µM.
Then `CC[C@H]1CC[C@H](C2CC=C(c3cnc(-c4ccc(C[C@H](NC(=O)c5ccccc5)C(=O)N5CC(C(=O)O)C5)cc4)nc3)CC2)CC1` (stereo partly shown) [Compound 99], with 0.5 to 2.5 µM.
